According to patent US12077503B2, “Substituted cyclic amides and their use as herbicides” (FMC CORPORATION, priority 2015, dated 2024):

How the values were obtained:
Format in all cases: in vivo
[1] = system: redroot pigweed (Amaranthus retroflexus); assay: Test G Post-Emergence Protocol; conditions: Amaranthus retroflexus, post-emergence, 312 h; for pest or weed control at 15.625 g/ha: 15.625 g ai/ha, evaluated after 13 days (100=total damage to plant; 0=no damage to plant), read-out: Pigweed, Redroot damage rating; for pest or weed control at 62.5 g/ha: 62.5 g ai/ha, read-out: Pigweed, Redroot damage rating (100=total damage to plant; 0=no damage to plant); for pest or weed control at 62.5 g/ha / pest or weed control at 250 g/ha: evaluated after 13 days; for pest or weed control at 250 g/ha: 250 g ai/ha, read-out: damage to plant, Pigweed, Redroot (100=total damage to plant; 0=no damage to plant)
How it was run: (§1)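 Values are percent visual injury at 13 days after treatment (0 none, 100 total). Treatment was a post-emergence spray at 15.625, 62.5 or 250 g/ha on 8-day-old pot plants kept at 24/16 °C.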

[2] = system: barnyardgrass (Echinochloa crus-galli); assay: Test G Post-Emergence Protocol; conditions: Echinochloa crus-galli, post-emergence, 312 h; for pest or weed control at 15.625 g/ha: 15.625 g ai/ha, evaluated after 13 days (100=total damage to plant; 0=no damage to plant), read-out: Barnyardgrass damage rating; for pest or weed control at 62.5 g/ha: 62.5 g ai/ha, read-out: Barnyardgrass damage rating (100=total damage to plant; 0=no damage to plant); for pest or weed control at 62.5 g/ha / pest or weed control at 250 g/ha: evaluated after 13 days; for pest or weed control at 250 g/ha: 250 g ai/ha, read-out: damage to plant, Barnyardgrass (100=total damage to plant; 0=no damage to plant)
How it was run: as §1

[3] = system: giant foxtail (Setaria faberi); assay: Test G Post-Emergence Protocol; conditions: Setaria faberi, post-emergence, 312 h; for pest or weed control at 15.625 g/ha: 15.625 g ai/ha, evaluated after 13 days (100=total damage to plant; 0=no damage to plant), read-out: Foxtail, Giant damage rating; for pest or weed control at 62.5 g/ha: 62.5 g ai/ha, read-out: Foxtail, Giant damage rating (100=total damage to plant; 0=no damage to plant); for pest or weed control at 62.5 g/ha / pest or weed control at 250 g/ha: evaluated after 13 days; for pest or weed control at 250 g/ha: 250 g ai/ha, read-out: damage to plant, Foxtail, Giant (100=total damage to plant; 0=no damage to plant)
How it was run: as §1

[4] = system: ivy-leaved morning glory (Ipomoea hederacea); assay: Test G Post-Emergence Protocol; conditions: Ipomoea, post-emergence, 312 h; for pest or weed control at 15.625 g/ha: 15.625 g ai/ha, evaluated after 13 days (100=total damage to plant; 0=no damage to plant), read-out: Morningglory, Ivy-leaved damage rating; for pest or weed control at 62.5 g/ha: 62.5 g ai/ha, read-out: Morningglory, Ivy-leaved damage rating (100=total damage to plant; 0=no damage to plant); for pest or weed control at 62.5 g/ha / pest or weed control at 250 g/ha: evaluated after 13 days; for pest or weed control at 250 g/ha: 250 g ai/ha, read-out: damage to plant, Morningglory, Ivy-leaved (100=total damage to plant; 0=no damage to plant)
How it was run: as §1

corn (Zea mays) [5] = assay: Test G Post-Emergence Protocol; conditions: Zea mays, post-emergence, 312 h; for plant injury at 15.625 g/ha: 15.625 g ai/ha, evaluated after 13 days (100=total damage to plant; 0=no damage to plant), read-out: Corn damage rating; for plant injury at 62.5 g/ha: 62.5 g ai/ha, read-out: Corn damage rating (100=total damage to plant; 0=no damage to plant); for plant injury at 62.5 g/ha / plant injury at 250 g/ha: evaluated after 13 days; for plant injury at 250 g/ha: 250 g ai/ha, read-out: damage to plant, Corn (100=total damage to plant; 0=no damage to plant)
How it was run: as §1

[6] = system: velvetleaf (Abutilon theophrasti); assay: Test G Post-Emergence Protocol; conditions: Abutilon theophrasti, post-emergence, 312 h; for pest or weed control at 15.625 g/ha: 15.625 g ai/ha, evaluated after 13 days (100=total damage to plant; 0=no damage to plant), read-out: Velvetleaf damage rating; for pest or weed control at 62.5 g/ha: 62.5 g ai/ha, read-out: Velvetleaf damage rating (100=total damage to plant; 0=no damage to plant); for pest or weed control at 62.5 g/ha / pest or weed control at 250 g/ha: evaluated after 13 days; for pest or weed control at 250 g/ha: 250 g ai/ha, read-out: damage to plant, Velvetleaf (100=total damage to plant; 0=no damage to plant)
How it was run: as §1

[7] = system: redroot pigweed (Amaranthus retroflexus); assay: Test G Pre-Emergence Protocol; conditions: Amaranthus retroflexus, pre-emergence, 312 h, evaluated after 13 days; for pest or weed control at 15.625 g/ha: 15.625 g ai/ha; for pest or weed control at 15.625 g/ha / pest or weed control at 250 g/ha: read-out: Pigweed, Redroot damage rating (100=total damage to plant; 0=no damage to plant); for pest or weed control at 62.5 g/ha: 62.5 g ai/ha, 100=total damage to plant, 0=no damage to plant, read-out: plant damage rating, Pigweed, Redroot; for pest or weed control at 250 g/ha: 250 g ai/ha
How it was run: (§2)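 Pots of seeds in standard soil were grown for one day in a glasshouse (24/16 °C day/night, 14 h light, 65% humidity), then sprayed with compound in acetone/water 50:50 with 0.5% Tween 20 at 15.625, 62.5 or 250 g/ha. Damage was scored after 13 days on a 0 (none) to 100 (total) scale.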

[8] = system: barnyardgrass (Echinochloa crus-galli); assay: Test G Pre-Emergence Protocol; conditions: Echinochloa crus-galli, pre-emergence, 312 h, evaluated after 13 days; for pest or weed control at 15.625 g/ha: 15.625 g ai/ha, read-out: Barnyard grass damage rating (100=total damage to plant; 0=no damage to plant); for pest or weed control at 62.5 g/ha: 62.5 g ai/ha, 100=total damage to plant, 0=no damage to plant, read-out: plant damage rating, Barnyardgrass; for pest or weed control at 250 g/ha: 250 g ai/ha, read-out: Barnyardgrass damage rating (100=total damage to plant; 0=no damage to plant)
How it was run: as §2

[9] = system: giant foxtail (Setaria faberi); assay: Test G Pre-Emergence Protocol; conditions: Setaria faberi, pre-emergence, 312 h, evaluated after 13 days; for pest or weed control at 15.625 g/ha: 15.625 g ai/ha; for pest or weed control at 15.625 g/ha / pest or weed control at 250 g/ha: read-out: Foxtail, Giant damage rating (100=total damage to plant; 0=no damage to plant); for pest or weed control at 62.5 g/ha: 62.5 g ai/ha, 100=total damage to plant, 0=no damage to plant, read-out: plant damage rating, Foxtail, Giant; for pest or weed control at 250 g/ha: 250 g ai/ha
How it was run: as §2

[10] = system: ivy-leaved morning glory (Ipomoea hederacea); assay: Test G Pre-Emergence Protocol; conditions: Ipomoea, pre-emergence, 312 h, evaluated after 13 days; for pest or weed control at 15.625 g/ha: 15.625 g ai/ha, read-out: Morning-glory, Ivy-leaved damage rating (100=total damage to plant; 0=no damage to plant); for pest or weed control at 62.5 g/ha: 62.5 g ai/ha, 100=total damage to plant, 0=no damage to plant, read-out: plant damage rating, Morningglory, Ivy-leaved; for pest or weed control at 250 g/ha: 250 g ai/ha, read-out: Morningglory, Ivy-leaved damage rating (100=total damage to plant; 0=no damage to plant)
How it was run: as §2

corn (Zea mays) [11] = assay: Test G Pre-Emergence Protocol; conditions: Zea mays, pre-emergence, 312 h, evaluated after 13 days; for plant injury at 15.625 g/ha: 15.625 g ai/ha; for plant injury at 15.625 g/ha / plant injury at 250 g/ha: read-out: Corn damage rating (100=total damage to plant; 0=no damage to plant); for plant injury at 62.5 g/ha: 62.5 g ai/ha, 100=total damage to plant, 0=no damage to plant, read-out: plant damage rating, Corn; for plant injury at 250 g/ha: 250 g ai/ha
How it was run: as §2

[12] = system: velvetleaf (Abutilon theophrasti); assay: Test G Pre-Emergence Protocol; conditions: Abutilon theophrasti, pre-emergence, 312 h, evaluated after 13 days; for pest or weed control at 15.625 g/ha: 15.625 g ai/ha; for pest or weed control at 15.625 g/ha / pest or weed control at 250 g/ha: read-out: Velvetleaf damage rating (100=total damage to plant; 0=no damage to plant); for pest or weed control at 62.5 g/ha: 62.5 g ai/ha, 100=total damage to plant, 0=no damage to plant, read-out: plant damage rating, Velvetleaf; for pest or weed control at 250 g/ha: 250 g ai/ha
How it was run: as §2

| Compound | pest or weed control at 15.625 g/ha [1] [%] | pest or weed control at 62.5 g/ha [1] [%] | pest or weed control at 250 g/ha [1] [%] | pest or weed control at 15.625 g/ha [2] [%] | pest or weed control at 62.5 g/ha [2] [%] | pest or weed control at 250 g/ha [2] [%] | pest or weed control at 15.625 g/ha [3] [%] | pest or weed control at 62.5 g/ha [3] [%] | pest or weed control at 250 g/ha [3] [%] | pest or weed control at 15.625 g/ha [4] [%] | pest or weed control at 62.5 g/ha [4] [%] | pest or weed control at 250 g/ha [4] [%] | plant injury at 15.625 g/ha (corn (Zea mays) [5]) [%] | plant injury at 62.5 g/ha (corn (Zea mays) [5]) [%] | plant injury at 250 g/ha (corn (Zea mays) [5]) [%] | pest or weed control at 15.625 g/ha [6] [%] | pest or weed control at 62.5 g/ha [6] [%] | pest or weed control at 250 g/ha [6] [%] | pest or weed control at 15.625 g/ha [7] [%] | pest or weed control at 62.5 g/ha [7] [%] | further results |
| --- | --- | --- | --- | --- | --- | --- | --- | --- | --- | --- | --- | --- | --- | --- | --- | --- | --- | --- | --- | --- | --- |
| CN1C[C@@H](c2ccc(C(F)(F)F)cc2)[C@H](C(=O)Nc2cccc(F)c2C(F)(F)F)C1=O (racemic) [Compound 1609] | 30 | 70 | 70 | 20 | 70 | 70 | 70 | 80 | 80 | 20 | 20 | 70 | 10 | 10 | 60 | 0 | 20 | 50 | 20 | 40 | pest or weed control at 250 g/ha [7]: 70%; pest or weed control at 15.625 g/ha [8]: 20%; pest or weed control at 62.5 g/ha [8]: 50%; pest or weed control at 250 g/ha [8]: 80%; pest or weed control at 15.625 g/ha [9]: 70%; pest or weed control at 62.5 g/ha [9]: 80%; pest or weed control at 250 g/ha [9]: 80%; pest or weed control at 15.625 g/ha [10]: 10%; pest or weed control at 62.5 g/ha [10]: 20%; pest or weed control at 250 g/ha [10]: 70%; plant injury at 15.625 g/ha (corn (Zea mays) [11]): 0%; plant injury at 62.5 g/ha (corn (Zea mays) [11]): 10%; plant injury at 250 g/ha (corn (Zea mays) [11]): 40%; pest or weed control at 15.625 g/ha [12]: 10%; pest or weed control at 62.5 g/ha [12]: 10%; pest or weed control at 250 g/ha [12]: 30% |
| CN1C[C@@H](c2ccc(C(F)(F)F)cc2)[C@H](C(=O)Nc2nn[nH]n2)C1=O (racemic) [Compound 1612] | 0 | 0 | 0 | 0 | 0 | 0 | 0 | 0 | 0 | 0 | 0 | 0 | 0 | 0 | 0 | 0 | 0 | 0 | 0 | 0 | pest or weed control at 250 g/ha [7]: 0%; pest or weed control at 15.625 g/ha [8]: 0%; pest or weed control at 62.5 g/ha [8]: 0%; pest or weed control at 250 g/ha [8]: 0%; pest or weed control at 15.625 g/ha [9]: 0%; pest or weed control at 62.5 g/ha [9]: 0%; pest or weed control at 250 g/ha [9]: 0%; pest or weed control at 15.625 g/ha [10]: 0%; pest or weed control at 62.5 g/ha [10]: 0%; pest or weed control at 250 g/ha [10]: 0%; plant injury at 15.625 g/ha (corn (Zea mays) [11]): 0%; plant injury at 62.5 g/ha (corn (Zea mays) [11]): 0%; plant injury at 250 g/ha (corn (Zea mays) [11]): 0%; pest or weed control at 15.625 g/ha [12]: 0%; pest or weed control at 62.5 g/ha [12]: 0%; pest or weed control at 250 g/ha [12]: 0% |
| CN1C[C@@H](c2ccc(C(F)(F)F)cc2)[C@H](C(=O)Nc2ccn(C)n2)C1=O (racemic) [Compound 1615] | 0 | 0 | 0 | 0 | 0 | 0 | 0 | 0 | 0 | 0 | 0 | 0 | 0 | 0 | 0 | 0 | 0 | 0 | 0 | 0 | pest or weed control at 250 g/ha [7]: 0%; pest or weed control at 15.625 g/ha [8]: 0%; pest or weed control at 62.5 g/ha [8]: 0%; pest or weed control at 250 g/ha [8]: 0%; pest or weed control at 15.625 g/ha [9]: 0%; pest or weed control at 62.5 g/ha [9]: 0%; pest or weed control at 250 g/ha [9]: 0%; pest or weed control at 15.625 g/ha [10]: 0%; pest or weed control at 62.5 g/ha [10]: 0%; pest or weed control at 250 g/ha [10]: 0%; plant injury at 15.625 g/ha (corn (Zea mays) [11]): 0%; plant injury at 62.5 g/ha (corn (Zea mays) [11]): 0%; plant injury at 250 g/ha (corn (Zea mays) [11]): 0%; pest or weed control at 15.625 g/ha [12]: 0%; pest or weed control at 62.5 g/ha [12]: 0%; pest or weed control at 250 g/ha [12]: 0% |
